From patent publication US20240190904A1, “Heteroaryl compounds as inhibitors of RIP2 kinase, composition and application thereof” (Accro Bioscience (HK) Limited, priority 2021, published 2024)
Where a name gives a salt, the structure may show the parent alone.

Columns and labels:
RIP2 kinase = RIP2 kinase (Homo sapiens (Human), UniProt O43353); assay: Binding affinity assay (Kd)
Description: For most assays, kinase-tagged T7 phage strains were prepared in an E. coli host derived from the BL21 strain. E. coli were grown to log-phase and infected with T7 phage and incubated with shaking at 32° C. until lysis. The lysates were centrifuged and filtered to remove cell debris. The remaining kinases were produced in HEK-293 cells and subsequently tagged with DNA for qPCR detection. Streptavidin coated magnetic beads were treated with biotinylated small molecule ligands for 30 minutes at room temperature to generate affinity resins for kinase assays. The liganded beads were blocked with excess biotin and washed with blocking buffer (SeaBlock (Pierce), 1% BSA, 0.05% Tween 20, 1 mM DTT) to remove unbound ligand and to reduce non-specific binding. Binding reactions were assembled by combining kinases, liganded affinity beads, and test compounds in 1× binding buffer (20% SeaBlock, 0.17×PBS, 0.05% Tween 20, 6 mM DTT). Test compounds were prepared as 111× stocks in 100% DMSO. Kds were determined using an 11-point 3-fold compound dilution series with three DMSO control points. All compounds for Kd measurements are distributed by acoustic transfer (non-contact dispensing) in 100% DMSO. The compounds were then diluted directly into the assays such that the final concentration of DMSO was 0.9%. All reactions performed in polypropylene 384-well plate. Each was a final volume of 0.02 ml. The assay plates were incubated at room temperature with shaking for 1 hour and the affinity beads were washed with wash buffer (1×PBS, 0.05% Tween 20). The beads were then re-suspended in elution buffer (1×PBS, 0.05% Tween 20, 0.5 μM nonbiotinylated affinity ligand) and incubated at room temperature with shaking for 30 minutes. The kinase concentration in the eluates was measured by qPCR.
An 11-point 3-fold serial dilution of each test compound was prepared in 100% DMSO at 100× final test concentration and subsequently diluted to 1× in the assay (final DMSO concentration=1%). Most Kds were determined using a compound top concentration=30,000 nM. If the initial Kd determined was <0.5 nM (the lowest concentration tested), the measurement was repeated with a serial dilution starting at a lower top concentration.
Binding constants (Kds) were calculated with a standard dose-response curve using the Hill equation: […]
The Hill Slope was set to −1.
Curves were fitted using a non-linear least square fit with the Levenberg-Marquardt algorithm.

[1] = tested on: IL-8 in THP-1 induced by MDP; assay: THP-1 cell assay, IL-8 ELISA after MDP; assay type: cell-based; conditions: for inhibition at 0.01 µM: Homo sapiens, test compounds 10 nM, THP-1, MDP induced
Description: Acute monoblastic and monocytic leukemia (THP-1) was obtained from ATCC (item NO. TIB-202™). The temperature of the sterile incubator is 37˜38° C., the osmotic pressure is 260˜320 mmol/L, the pH range is 7.2˜7.4, and the ratio of carbon dioxide gas is 5%.
Cells were seeded in 96-well plates. After an hour, cells were incubated with test compounds for 2 hours. MDP (10 μL) was added and incubated for 6 hours. The samples were centrifuged (3000 rmp/min) for 5 minutes. The concentration of IL-8 in the supernatants was detected by IL-8 ELISA.

[2] = Pharmacokinetic evaluation in mice; assay type: in vivo
Description: The mice pharmacokinetic characteristics of compounds were tested by standard protocols. The candidate compounds were made into clear solution for single intravenous injection (i.v.) and suspension for oral administration (p.o.). Intravenous vehicle is 5% DMSO+95% Saline while oral vehicle is 0.5% CMCNa. The experiment used 48 male mice and 24 mice for intravenous at a dose of 2 mg/kg. Plasma samples were collected at 0 h (before dosing) and 0.083 h, 0.25 h, 0.5 h, 1 h, 2 h, 4 h, 8 h, 24 h after dosing. Another 24 mice were orally administrated with a dose of 10 mg/kg. Plasma samples were collected at 0 h (before dosing) and 0.25 h, 0.5 h, 1 h, 2 h, 4 h, 6 h, 8 h, 24 h after dosing.
Blood samples were placed in tubes containing K2-EDTA and stored on ice until centrifuged. The blood samples were centrifuged at 6800 g for 6 minutes at 2-8° C. within 1 h after collected and stored frozen at approximately −80° C.
The analytical results were confirmed using quality control samples for intra-assay variation. The accuracy of >66.7% of the quality control samples and 50% of all QC samples at each concentration level were between 80-120% of the known value(s).
Standard set of parameters including Area Under the Curve (AUC(0-t) and AUC(0-∞)), elimination half-live (T1/2), maximum plasma concentration (Cmax), time to reach maximum plasma concentration (Tmax) were calculated using noncompartmental analysis modules in FDA certified pharmacokinetic program Phoenix WinNonlin 7.0 (Pharsight, USA) by the Study Director.

[3] = Protein binding test (dialysis), dog; assay type: in vitro ADME
Description: (§1) • 1. Spiking Solutions of Test and Reference Compounds • 1.1 Solution A (0.5 mM): Add 10 μL of 10 mM stock solution into 190 μL of DMSO. • 1.2 Solution B (0.02 mM): Add 8 μL of Solution A into 192 μL of 0.05 M sodium phosphate buffer. The final DMSO concentration in Solution B is 4%. • 2. Preparation of Test and Reference Compounds • 2.1 Preload a 96-well plate with 380 μL aliquots of plasma in the wells designated for plasma and buffer, respectively. • 2.2 Spike 20 μL of Solution B (0.02 mM of test and reference compounds) into the pre-loaded plasma in the 96-well plate. The final test concentration is 1 μM containing 0.2% DMSO. • 3. Dialysis Sample Loading • 3.1 Preparing plasma against buffer system (duplicate): Apply aliquots of 100 μL of blank dialysis buffer to the receiver side of dialysis chambers. Then apply aliquots of 100 μL of the plasma spiked with test and reference compounds to the donor side of the dialysis chambers. • 3.2 Preparing T0 plasma samples for initial concentrations (duplicate): • 3.2.1 Aliquot 25 μL of the plasma spiked with test and reference compounds into a 96-well sample preparation plate as T0 plasma samples • 3.2.2 Mix the aliquots with same volume of blank buffer (50:50, v/v). • 3.2.3 Quench the samples with 200 μL of acetonitrile containing internal standard (IS). • 3.3 Cover the dialysis block with a plastic lid and place the entire apparatus in a shaker (60 rpm) for 5 hours at 37° C. • 3.4 Preparing dialyzed samples after 5-hour incubation: • 3.4.1 Aliquot 25 μL from both the donor sides and receiver sides of the dialysis apparatus into new sample preparation plates and mix the aliquots with same volume of opposite matrixes (blank buffer to plasma and vice versa). • 3.4.2 Quench the samples with 200 μL acetonitrile containing internal standard (IS). Vortex all the samples (from 0 h and 5 h) at 600 rpm for 10 min followed by centrifugation at 5594 g for 15 minutes (ThermoMultifuge×3R). • 3.4.3 Transfer 50 μL of the supernatants to a new 96-well plate and mix the samples with 50 μL of Milli-Q water. Cover the sample plate and store it in a freezer (−20° C.) until LC/MS/MS analysis.

[4] = Protein binding test (dialysis), rat; assay type: in vitro ADME
Description: as §1

[5] = Protein binding test (dialysis), human; assay type: in vitro ADME
Description: as §1

[6] = male, mouse, plasma, iv, i.v. 2 mg/kg
[7] = male, mouse, plasma, po, p.o. 10 mg/kg

RIP2 kinase, sequence (O43353 whole entry): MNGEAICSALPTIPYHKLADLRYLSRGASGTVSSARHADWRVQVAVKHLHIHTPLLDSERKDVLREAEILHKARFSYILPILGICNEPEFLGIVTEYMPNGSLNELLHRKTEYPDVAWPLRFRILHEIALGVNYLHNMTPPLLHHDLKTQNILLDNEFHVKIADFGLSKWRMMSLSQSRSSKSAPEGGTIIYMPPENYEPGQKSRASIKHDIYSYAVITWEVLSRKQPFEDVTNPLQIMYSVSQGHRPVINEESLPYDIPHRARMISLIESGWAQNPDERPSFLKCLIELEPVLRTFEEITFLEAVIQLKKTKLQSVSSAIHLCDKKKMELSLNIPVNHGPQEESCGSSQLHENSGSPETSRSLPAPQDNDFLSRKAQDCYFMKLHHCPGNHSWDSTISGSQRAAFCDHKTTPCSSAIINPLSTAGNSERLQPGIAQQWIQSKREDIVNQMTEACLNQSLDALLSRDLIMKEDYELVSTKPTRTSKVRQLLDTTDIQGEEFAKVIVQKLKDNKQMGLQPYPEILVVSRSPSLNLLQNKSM

SMILES	Kd (RIP2 kinase) [nM]	inhibition at 0.01 µM [1] [%]	further results
CP(C)(=O)c1ccc2nccc(Nc3ccc4scnc4c3)c2c1 [A1, (4-(benzo[d]thiazol-5-ylamino)quinolin-6-yl)dimethylphosphine oxide hydrochloride]	28		
Cc1ccc(O)cc1Nc1ccnc2ccc(P(C)(C)=O)cc12 [A2]	89		
CP(C)(=O)c1ccc2nccc(Nc3n[nH]c4ccc(F)cc34)c2c1 [A3]	430		
Cc1[nH]nc(Nc2ccnc3ccc(P(C)(C)=O)cc23)c1C [A4]	89		
CP(C)(=O)c1ccc2nccc(Nc3cc(O)ccc3F)c2c1 [A5]	120		
CP(C)(=O)c1cc2c(Nc3ccc4scnc4c3)ccnc2cc1OC1CCOC1 (centres unmarked) [A10]	1.8	51	
Cn1cc(-c2cc3nccc(Nc4ccc5scnc5c4)c3cc2P(C)(C)=O)cn1 [A11, (4-(benzo[d]thiazol-5-ylamino)-7-(1-methyl-1H-pyrazol-4-yl)quinolin-6-yl)dimethylphosphine oxide]	3	37	
CP(C)(=O)c1cc2c(Nc3ccc4scnc4c3)ccnc2cc1-c1cc[nH]n1 [A12]	2.3		
CP(C)(=O)c1cc2c(Nc3ccc4scnc4c3)ccnc2cc1-c1cn[nH]c1 [A17]		11	
CP(C)(=O)c1cc2c(Nc3ccc4scnc4c3)ccnc2cc1OC[C@@H](O)CO [A18, (S)-(4-(benzo[d]thiazol-5-ylamino)-7-(2,3-dihydroxypropoxy)quinolin-6-yl)dimethylphosphine oxide]		12	
CP(C)(=O)c1cc2c(Nc3ccc4scnc4c3)ccnc2cc1OC[C@H](O)CO [A19]		13	
CP(C)(=O)c1cc2c(Nc3ccc4scnc4c3)ccnc2cc1F [A20]	8.7		
CP(C)(=O)c1cc2c(Nc3ccc4scnc4c3)ccnc2cc1OC1CCC1 [A21]	1.5		
[2H]C([2H])([2H])Oc1cc2nccc(Nc3ccc4scnc4c3)c2cc1P(C)(C)=O [A22]		60	
COc1cc2ncc(F)c(Nc3ccc4scnc4c3)c2cc1P(C)(C)=O [A23, (4-(benzo[d]thiazol-5-ylamino)-3-fluoro-7-methoxyquinolin-6-yl)dimethylphosphine oxide]		5	
CP(C)(=O)c1cc2c(Nc3ccc4scnc4c3)ccnc2cc1OC(F)F [A25]	6.4		plasma exposure and bioavailability in mice (in words) [2]: excellent plasma exposure and bioavailability; AUC [2, 6]: 6510 ng·h/mL; Vd [2, 6]: 0.59 L/kg; clearance [2, 6]: 4.3 mL/min/kg; half-life [2, 6]: 1.6 h; AUC [2, 7]: 68300 ng·h/mL; Cmax [2, 7]: 19200 ng/mL; Tmax [2, 7]: 0.7 h; F ([2]; p.o. 10 mg/kg): 210%; protein binding in dog (in words) ([3]; dog): moderate; fraction unbound at 5 h, 1 μM ([3]; dog plasma, 1 μM): 0.05; protein binding in rat (in words) ([4]; rat): high protein binding; fraction unbound at 5 h, 1 μM ([4]; rat plasma, 1 μM): 0.006; protein binding in human (in words) ([5]; human): moderate; fraction unbound at 5 h, 1 μM ([5]; human plasma, 1 μM): 0.032
CP(C)(=O)c1cc2c(Nc3ccc4scnc4c3)ccnc2cc1C1COC1 [A26, (4-(benzo[d]thiazol-5-ylamino)-7-(oxetan-3-yl)quinolin-6-yl)dimethylphosphine oxide]	12		
Cc1noc(C)c1-c1cc2nccc(Nc3ccc4scnc4c3)c2cc1P(C)(C)=O [A27]		37	
COc1cc2nccc(Nc3ccc4scnc4c3F)c2cc1P(C)(C)=O [A28]		63	
CP(C)(=O)c1cc2c(Nc3ccc4scnc4c3F)ccnc2cc1OC1COC1 [A29]		85	
CP(C)(=O)c1cnc2nccc(Nc3ccc4scnc4c3)c2c1 [B1, (5-(benzo[d]thiazol-5-ylamino)-1,8-naphthyridin-3-yl)dimethylphosphine oxide]	3200		affinity with RIP2 kinase (in words) (RIP2 kinase): low affinity
COc1cc2nncc(Nc3ccc4scnc4c3)c2cc1P(C)(C)=O [B2, (4-(benzo[d]thiazol-5-ylamino)-7-methoxycinnolin-6-yl)dimethylphosphine oxide]		0	inhibition of IL-8 in THP-1 induced by MDP (in words) ([1]; 10 nM): no effect
